{"source": "patent US7678390B2", "about": "“Carbon monoxide as a biomarker and therapeutic agent” (priority 1999, dated 2010)", "assay_type_in_all_cases": "in vivo, rat", "key": {"[1]": {"test_system": "rats exposed to hyperoxia (>98% O2)", "assay": "Survival of rats in lethal hyperoxia in the presence of CO", "settings": "for % Survival 72 h / % Survival 100 h: hyperoxia (>98%)", "source_text": "Pathogen-free male Sprague-Dawley rats (250-300 g) were purchased from Harlan Sprague-Dawley (Indianapolis, Ind.) and allowed to acclimate upon arrival for 7 days prior to experimentation. Animals were fed rodent chow and water ad libitum. All experimental protocols were approved by the Animal Care and Use Committee.\n(§1) Animals were exposed to >98% O2 or 98% O2+CO mixtures at a flow rate of 12 liters/min in a 3.70-cubic-foot glass exposure chamber. Animals were supplied food and water during the exposures. CO at a concentration of 1% (10,000 ppm) in compressed air was mixed with >98% O2 in a stainless steel mixing cylinder prior to entering the exposure chamber. By varying the flow rates of CO into the mixing cylinder, concentrations delivered to the exposure chamber were controlled. Because the flow rate was primarily determined by the O2 flow, only the CO flow was changed to generate the different concentrations delivered to the exposure chamber. A carbon monoxide analyzer (Interscan Corporation, Chatsworth, Calif.) was used to measure CO levels continuously in the chamber. Gas samples were taken by the analyzer through a port in the top of the exposure chamber at a rate of 1 liter/min and analyzed by electrochemical detection with a sensitivity of 10 ppm to 600 ppm. CO levels in the chamber were recorded at hourly intervals and there were no changes in chamber CO concentrations once the chamber had equilibrated. O2 concentrations in the chamber were determined using a gas spectrometer.\nWe used clinically relevant in vivo models of oxidative stress to test the hypothesis that CO mediates the protective effects of HO-1 against oxidative stress. Hyperoxia when administered to animals produces pathophysiologic changes similar to those seen in human adult respiratory distress syndrome (ARDS) (Lee, et al., Am. J. Resp Cell Mol Biol. 14: 556-568; and Clerch, and Massaro, J. Clin. Invest. 91: 499-1508). […] These rats will uniformly die by 72 h of continuous hyperoxic exposure (Lee, et al. and Clerch, supra). In this study, one group of rats were placed in hyperoxia (>98% oxygen O2) alone while the second group of rats were placed in an identical chamber and exposed to the same levels of hyperoxia in the presence of a low concentration of CO (250 ppm). […] We observed concentration dependent protection against hyperoxia at both 72 and 100 h of hyperoxia exposure (Table 1). (P-value for the association between survival and CO concentration is 0.001 by logistic regression). Carboxyhemoglobin levels, a standard measurement of CO levels in the blood, correlated with increasing concentrations of CO exposure and survival of animals to lethal hyperoxia (Table 1, below)."}, "[2]": {"test_system": "rats exposed to hyperoxia (>98% O2)", "source_text": "as §1\nLungs were fixed by perfusion with 10% formalin at 20 cm H2O pressure and embedded in paraffin. Lung sections of […] were mounted onto slides pretreated with 3-aminopropylethoxysilane (Digene Diagnostics, Inc., Beltsville, Md.). Slides were baked for 30 min at 60° C. and washed twice in fresh xylene for 5 min to remove the paraffin. The slides were then rehydrated though a series of graded alcohols and then washed in distilled water for 3 min prior to staining with hematoxylin and eosin.\n(§2) Animals were anesthesized with sodium pentobarbital 24 h after LPS administration or 56 h of hyperoxia exposure. BAL (35 ml/kg) was performed 4 times with PBS (pH 7.4). Cells were pooled from the lavages and centrifuged at 1200 g for 10 min. The supernatant was discarded and cells were resuspended in PBS. Cell counts were performed using a Neubaur hemocytometer. For differential analysis, samples were cytocentrifuged and stained with Diff-Quik. Measurement of Injury Markers Rats were removed at 56 h of hyperoxia and anesthetized with sodium pentobarbital. The pleural effusion was collected by inserting an 18 gauge needle and 10 cc syringe through the diaphragm and withdrawing all fluid present in the pleural cavity. BAL was performed as described above, and the first lavage was centrifuged at 1200 g for 10 min and the supernatant was assayed for the protein albumin as determined by Bromcresol Green Kit (BCG) from Sigma (St. Louis, Mo.). Arterial Blood Oxygen Tension and Carboxyhemoglobin Determination Indwelling catheters were surgically implanted into the carotid arteries of rats anesthetized with 3% v/v isoflurane. Animals were secured in jackets and tethers to allow movement about the cage and access to food and water which were placed inside the exposure chambers. Polyethelene tubing, connected to the catheter and threaded out through an airtight fitting in the lid of the chamber, was used for continuous heparin infusion throughout the exposure (20 U/ml at 0.1 ml/h) to maintain patency of the vessel. At each time point, 1 cc of blood was drawn into a heparinized syringe, sealed and placed on ice until analyzed for oxygen tension. Arterial oxygen tension and carboxyhemoglobin were determined using a BG3 Instrumentation Laboratory Blood Gas Analyzer and Co-oximeter (Boston, Mass.). […]"}, "[3]": {"test_system": "rats given lipopolysaccharide", "assay": "LPS-induced neutrophil influx into the airways of rats", "settings": "LPS 3 mg/kg i.v., exposed to CO", "procedure": "as §2, with “Arterial Blood Oxygen Tension and Carboxyhemoglobin Determination Indwelling catheters were surgically implanted into the carotid arteries of rats anesthetized with 3% v/v isoflurane. Animals were secured in jackets and tethers to allow movement about the cage and access to food and water which were placed inside the exposure chambers. Polyethelene tubing, connected to the catheter and threaded out through an airtight fitting in the lid of the chamber, was used for continuous heparin infusion throughout the exposure (20 U/ml at 0.1 ml/h) to maintain patency of the vessel.” left out"}, "[4]": {"settings": "hyperoxia in the presence of CO"}}, "data": [{"smiles": "[C-]#[O+]", "note": "[CO, carbon monoxide]", "values": [{"measurement": "survival in hyperoxia", "setting": "[1]; hyperoxia (>98% O2), CO 250 ppm, 72 h", "value": "all animals were alive at the 72 h time point"}, {"measurement": "% Survival 72 h", "setting": "[1]; CO 50 ppm, 72 h", "value": 33, "unit": "%"}, {"measurement": "% Survival 100 h", "setting": "[1]; CO 50 ppm", "value": 0, "unit": "%"}, {"measurement": "% Survival 72 h", "setting": "[1]; CO 100 ppm, 72 h", "value": 50, "unit": "%"}, {"measurement": "% Survival 100 h", "setting": "[1]; CO 100 ppm", "value": 50, "unit": "%"}, {"measurement": "% Survival 72 h", "setting": "[1]; CO 250 ppm, 72 h", "value": 100, "unit": "%"}, {"measurement": "% Survival 100 h", "setting": "[1]; CO 250 ppm", "value": 80, "unit": "%"}, {"measurement": "% Survival 72 h", "setting": "[1]; CO 500 ppm, 72 h", "value": 100, "unit": "%"}, {"measurement": "% Survival 100 h", "setting": "[1]; CO 500 ppm", "value": 80, "unit": "%"}, {"measurement": "neutrophil influx into the airways (BAL)", "setting": "[2]; 56 h hyperoxia in the presence of CO (250 ppm)", "value": "significant reductions"}, {"measurement": "lung apoptotic index", "setting": "[2]; 56 h hyperoxia in the presence of CO (250 ppm), TUNEL/DAPI", "value": "1.8%±0.12"}, {"measurement": "volume of pleural effusion", "setting": "[2]; 56 h hyperoxia in the presence of a low concentration of CO", "value": "marked inhibition"}, {"measurement": "lung histology", "setting": "[2]; [4]", "value": "completely normal macroscopically and microscopically"}, {"measurement": "protein accumulation into the airways (bronchoalveolar lavage)", "setting": "[2]; [4]", "value": "significantly lower levels"}, {"measurement": "LPS-induced neutrophil influx into the airways", "setting": "[3]", "value": "significantly inhibited"}]}]}
